Measured values as given in article PMC3739731, “Pharmacological Inhibition of polysialyltransferase ST8SiaII Modulates Tumour Cell Migration” (PLoS ONE, 2013).

Legend:
ST8SiaII [1] = target: T1, ST8SiaII (Homo sapiens, UniProt Q92186); assay: HPLC assay of DMB-DP3 polysialylation with recombinant human ST8SiaII, Dixon plot; assay type: biochemical
T1 construct: gene ST8SIA2
T1 sequence (Q92186 1-375): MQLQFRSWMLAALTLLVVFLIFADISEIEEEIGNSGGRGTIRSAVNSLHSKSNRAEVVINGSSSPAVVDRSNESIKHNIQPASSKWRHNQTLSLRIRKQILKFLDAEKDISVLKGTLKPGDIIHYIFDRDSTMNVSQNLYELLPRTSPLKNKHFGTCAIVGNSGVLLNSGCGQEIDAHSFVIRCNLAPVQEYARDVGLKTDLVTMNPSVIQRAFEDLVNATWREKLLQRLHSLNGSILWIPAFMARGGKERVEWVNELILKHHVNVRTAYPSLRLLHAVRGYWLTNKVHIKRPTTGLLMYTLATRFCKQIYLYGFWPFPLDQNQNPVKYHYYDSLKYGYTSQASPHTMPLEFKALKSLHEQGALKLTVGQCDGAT

ST8SiaII [2] = target: T1, ST8SiaII; assay: HPLC-fluorescence enzyme kinetics, Lineweaver-Burk (Km); assay type: biochemical

| Molecule | Ki (ST8SiaII [1]) [µM] | Km (ST8SiaII [2]) [µM] |
| --- | --- | --- |
| Nc1ccn([C@@H]2O[C@H](COP(=O)(O)O)[C@@H](O)[C@H]2O)c(=O)n1 [CMP] | 10 | – |
| DMB-DP3 | – | 38.9 |
